This is an account of results in PMC5520944 (Cell Death & Disease, 2017).

Test [1] has as its system Molm13. Kind of test: cells. More on the design: species or system Jurkat FADD-/-, HT-29, MV4-11 or Molm13; protection from induced necroptosis, cell death by PI staining and flow cytometry. The following applies: Homo sapiens, MOLM-13; BV6 + zVAD; inhibition of induced cell death. As for the experimental part:
Figure 2 Sorafenib inhibits TNF-induced RIPK1-dependent cell death in both murine and human cell lines and rescues AML cells from Smac mimetic-induced necroptosis. […] (c,d) HT-29 and Jurkat FADD−/− cells were pretreated for 1 h with DMSO, Nec-1 or Sorafenib (concentrations as indicated) and stimulated for 6 h with 30 ng/ml hTNF, 1 μM BV6 and 30 μM zVAD (HT-29) or stimulated for 10 h with 100 ng/ml hTNF (Jurkat FADD−/−). (a-d) Data were normalized to DMSO-treated control cells and represent the mean value±S.E.M. of three independent experiments. Toxic concentrations were removed from the analysis. L929sAhFas and MEF cells were stained with Hoechst and PI and percentage PI-positive nuclei was determined using high-content image analysis (BD pathway Bioimager). For HT-29 and Jurkat FADD−/− cells, cell death was determined by PI staining and flow cytometry. […] Cell death in AML cells was determined by PI staining and flow cytometry. Mean and S.D. of three independent experiments performed in triplicate are shown Supplementary materials and methods Immunoblotting. After treatments, cells were washed twice with PBS and lysed with Laemmli buffer (2x) directly or with NP-40 lysis buffer (150 mM NaCl, 1% NP-40, 10% glycerol, 10 mM Tris-HCl pH 8) supplemented with EDTA-free protease inhibitor cocktail tablets (Roche Diagnostics, Basel, Switzerland, #11873580001) and phosphatase inhibitor cocktail tablets (Roche Diagnostics, #04906837001). After lysis with NP-40 lysis buffer, lysates were kept 10 minutes on ice and centrifugated in a microcentrifuge (10 min, 13.000 rpm, 4°C). Supernatant was used for SDS-PAGE and immunoblotting. FACS analysis. FACS analysis was used to measure dying HT-29, Jurkat FADD-/- and AML cells. Treated HT-29 cells were harvested, washed with PBS and incubated with Annexin V binding buffer (BD Biosciences, 556454) containing 7-AAD and Annexin V-FITC for 15 min according to the manufacturer’s protocol. FACSCalibur^TM Flow Cytometer (BD Biosciences) and CellQuest Pro software were used to perform experiments and analyze data respectively.

For test [2], the system named is L929sAhFas. Kind of test: cells. More on the design: high-content necroptosis screen, percentage PI-positive nuclei as percent of DMSO plus stimulus control. From the text:
To identify novel inhibitors or regulators of necroptosis, 500 small compounds from libraries targeting autophagy, kinases, phosphatases, proteases and redox balance were screened for their ability to block TNF-induced necroptosis in murine L929sAhFas cells. Three conditions were used to induce necroptosis in L929 cells: TNF alone, TNF+TAK1 inhibitor (TAK1i) and TNF+zVAD-fmk, a pan-caspase inhibitor. Inhibition of TAK1 or caspases sensitizes to necroptosis.[13], [32] Necroptosis, measured as the percentage of PI-positive nuclei normalized to the plate-specific DMSO control, was determined for each compound (Supplementary Figure 1A). […] After compound treatment, L929sAhFas (a) or L929 (b) cells were stimulated with mTNF (T), mTNF+Tak1i (TiT) or mTNF+zVAD (zVT) (Supplementary Figure 1A and B). (a) Cell death percentage (% PI-positive nuclei) or cell loss was calculated as percent of control (DMSO+stimulus). […] (b) Cell loss (luminescence-based readout for ATP) was calculated as percent of control (DMSO+stimulus). […] In stimulated conditions, % PI-positive nuclei was determined as % of DMSO control. Data represent mean values±S.E.M. of two independent experiments. Cells were stained with Hoechst and PI and percentage PI-positive nuclei was determined using high-content image analysis (BD pathway Bioimager). (d) L929sAhFas cells were treated with Sorafenib (concentration as indicated) for 24 h. Then, stimulus was removed, 50 cells/condition seeded and colonies counted with crystal violet staining after 10 days incubation. […] Schemes of workflow screening assays in L929 cell lines. (A) Scheme of the workflow of a high-content screening assay on L929sAhFas cells using mTNF (T) and mTNF+Tak1i ((5Z)-7-Oxozeaenol) (TiT) to induce necroptotic cell death. Nec-1 and zVAD-fmk were used as protective and sensitizing benchmarks, respectively, on all plates. (B) Scheme of the workflow of a CellTiter-Glo luminescent cell viability screening assay on L929 cells using mTNF+zVAD (zVT) to induce necroptotic cell death. Supplementary Figure S2. Z’ calculation for cell death screening assays in L929 cells. (A) Z’ calculation for cell death screening assay (Fig. 1A) in mTNF-stimulated L929sAhFas cells. (B) Z’ calculation for cell death screening assay (Fig. 1A) in L929sAhFas cells stimulated with mTNF + Taki.

Molecules are shown by their SMILES. pIC50: −log10 of the molar value. Structures can show the parent of a compound that is named as a salt. Where two headings read alike, the source gives them in different places. A value given as a limit tells only on which side of the number the result lay.

As for `CNC(=O)c1cc(Oc2ccc(NC(=O)Nc3ccc(Cl)c(C(F)(F)F)c3)cc2)ccn1` [Sorafenib tosylate], in test [1], the pIC50 is ≥ 7.52. For the same molecule, the activity at 10 µM in test [2] (read-out: cell death TNF (POC)) stood at 41.5%; in test [2] (read-out: cell death TNF/Taki (POC)), 11.8%.
